How the values were obtained:
[1] = molecular target: SRSF protein kinase 2 (Homo sapiens) (UniProt P78362); conditions: Compound concentration 1000.0 nM
[2] = molecular target: Death-associated protein kinase 1 (Homo sapiens) (UniProt P53355); conditions: Compound concentration 1000.0 nM
[3] = system: ALK tyrosine kinase receptor (Homo sapiens), Q9UM73 [L1196M]; conditions: Compound concentration 1000.0 nM
[4] = molecular target: Serine/threonine-protein kinase WNK3 (Homo sapiens) (UniProt Q9BYP7); conditions: Compound concentration 1000.0 nM
[5] = molecular target: Serine/threonine-protein kinase WNK4 (Homo sapiens) (UniProt Q96J92); conditions: Compound concentration 1000.0 nM
[6] = molecular target: Calcium/calmodulin-dependent protein kinase kinase 1 (Homo sapiens) (UniProt Q8N5S9); conditions: Compound concentration 1000.0 nM
[7] = molecular target: Serine/threonine-protein kinase Nek2 (Homo sapiens) (UniProt P51955); conditions: Compound concentration 1000.0 nM
[8] = system: Phosphatidylinositol 4,5-bisphosphate 3-kinase catalytic subunit alpha isoform (Homo sapiens), P42336 [H1047L]; conditions: Compound concentration 1000.0 nM
Sequence of Phosphatidylinositol 4,5-bisphosphate 3-kinase catalytic subunit alpha isoform (Homo sapiens), P42336 [H1047L] (P42336 whole entry H1047L, canonical isoform): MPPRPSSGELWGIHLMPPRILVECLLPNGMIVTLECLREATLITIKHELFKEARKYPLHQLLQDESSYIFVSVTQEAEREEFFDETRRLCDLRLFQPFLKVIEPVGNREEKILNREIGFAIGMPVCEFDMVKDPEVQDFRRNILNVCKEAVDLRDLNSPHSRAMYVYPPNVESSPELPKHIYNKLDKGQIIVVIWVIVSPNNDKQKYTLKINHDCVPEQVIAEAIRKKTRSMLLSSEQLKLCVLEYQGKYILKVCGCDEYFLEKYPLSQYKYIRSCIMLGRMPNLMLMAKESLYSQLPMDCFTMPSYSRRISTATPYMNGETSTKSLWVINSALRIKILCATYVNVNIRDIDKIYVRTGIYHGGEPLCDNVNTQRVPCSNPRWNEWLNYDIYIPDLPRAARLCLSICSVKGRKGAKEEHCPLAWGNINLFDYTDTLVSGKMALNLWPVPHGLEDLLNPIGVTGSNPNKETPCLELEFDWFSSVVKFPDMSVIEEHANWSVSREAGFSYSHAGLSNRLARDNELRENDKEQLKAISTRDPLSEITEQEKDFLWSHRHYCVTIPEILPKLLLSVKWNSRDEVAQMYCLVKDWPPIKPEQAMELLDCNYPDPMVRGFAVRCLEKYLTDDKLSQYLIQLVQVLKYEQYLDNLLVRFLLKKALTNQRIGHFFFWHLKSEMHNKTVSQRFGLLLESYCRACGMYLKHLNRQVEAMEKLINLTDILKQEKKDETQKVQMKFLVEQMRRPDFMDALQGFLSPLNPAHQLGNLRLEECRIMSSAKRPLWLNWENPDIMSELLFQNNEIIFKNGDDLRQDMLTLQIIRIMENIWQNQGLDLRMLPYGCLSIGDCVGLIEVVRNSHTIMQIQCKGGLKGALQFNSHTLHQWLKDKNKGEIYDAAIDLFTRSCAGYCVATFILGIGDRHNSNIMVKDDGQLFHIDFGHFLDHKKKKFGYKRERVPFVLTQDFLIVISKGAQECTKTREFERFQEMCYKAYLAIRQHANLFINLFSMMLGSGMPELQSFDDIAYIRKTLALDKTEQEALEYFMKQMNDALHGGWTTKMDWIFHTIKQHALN

[9] = molecular target: Sodium-dependent serotonin transporter (Homo sapiens) (UniProt P31645); conditions: Compound concentration 10.0 uM
Sequence of Sodium-dependent serotonin transporter (Homo sapiens) (P31645 whole entry, looked up): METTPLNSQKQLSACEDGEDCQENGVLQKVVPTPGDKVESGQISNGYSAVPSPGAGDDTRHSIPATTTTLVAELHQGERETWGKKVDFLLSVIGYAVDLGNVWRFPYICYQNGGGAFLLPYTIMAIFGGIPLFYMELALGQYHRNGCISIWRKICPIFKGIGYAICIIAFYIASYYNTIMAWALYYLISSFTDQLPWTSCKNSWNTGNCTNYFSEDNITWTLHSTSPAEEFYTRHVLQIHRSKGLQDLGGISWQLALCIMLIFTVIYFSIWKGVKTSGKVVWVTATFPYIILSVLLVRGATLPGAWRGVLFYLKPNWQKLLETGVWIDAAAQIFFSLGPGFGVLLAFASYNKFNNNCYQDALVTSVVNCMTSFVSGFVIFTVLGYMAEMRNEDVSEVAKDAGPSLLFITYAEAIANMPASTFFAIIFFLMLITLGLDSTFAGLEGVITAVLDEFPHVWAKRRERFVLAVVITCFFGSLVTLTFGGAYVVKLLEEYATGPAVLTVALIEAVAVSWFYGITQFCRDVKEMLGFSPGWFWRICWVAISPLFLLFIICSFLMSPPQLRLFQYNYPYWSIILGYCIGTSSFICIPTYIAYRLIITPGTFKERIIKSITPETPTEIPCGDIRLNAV

[10] = molecular target: Serine/threonine-protein kinase Nek11 (Homo sapiens) (UniProt Q8NG66); conditions: Compound concentration 1000.0 nM
[11] = molecular target: BDNF/NT-3 growth factors receptor (Homo sapiens) (UniProt Q16620); conditions: Compound concentration 1000.0 nM
[12] = molecular target: Serine/threonine-protein kinase RIO2 (Homo sapiens) (UniProt Q9BVS4); conditions: Compound concentration 1000.0 nM
[13] = molecular target: Serine/threonine-protein kinase 17B (Homo sapiens) (UniProt O94768); conditions: Compound concentration 1000.0 nM
[14] = molecular target: Ephrin type-A receptor 6 (Homo sapiens) (UniProt Q9UF33); conditions: Compound concentration 1000.0 nM
[15] = molecular target: Ephrin type-A receptor 5 (Homo sapiens) (UniProt P54756); conditions: Compound concentration 1000.0 nM
[16] = molecular target: Tyrosine-protein kinase receptor TYRO3 (Homo sapiens) (UniProt Q06418); conditions: Compound concentration 1000.0 nM
[17] = molecular target: Tyrosine-protein kinase Mer (Homo sapiens) (UniProt Q12866); conditions: Compound concentration 1000.0 nM
[18] = molecular target: Mitogen-activated protein kinase kinase kinase 15 (Homo sapiens) (UniProt Q6ZN16); conditions: Compound concentration 1000.0 nM
[19] = system: Tyrosine-protein kinase ABL1 (Homo sapiens), P00519 [T315I]; conditions: Compound concentration 1000.0 nM
[20] = molecular target: Tyrosine-protein kinase Lck (Homo sapiens) (UniProt P06239); conditions: Compound concentration 1000.0 nM
[21] = molecular target: Membrane-associated tyrosine- and threonine-specific cdc2-inhibitory kinase (Homo sapiens) (UniProt Q99640); conditions: Compound concentration 1000.0 nM
[22] = molecular target: Protein kinase C epsilon type (Homo sapiens) (UniProt Q02156); conditions: Compound concentration 1000.0 nM
[23] = molecular target: RAC-gamma serine/threonine-protein kinase (Homo sapiens) (UniProt Q9Y243); conditions: Compound concentration 1000.0 nM
Sequence of RAC-gamma serine/threonine-protein kinase (Homo sapiens) (Q9Y243 whole entry): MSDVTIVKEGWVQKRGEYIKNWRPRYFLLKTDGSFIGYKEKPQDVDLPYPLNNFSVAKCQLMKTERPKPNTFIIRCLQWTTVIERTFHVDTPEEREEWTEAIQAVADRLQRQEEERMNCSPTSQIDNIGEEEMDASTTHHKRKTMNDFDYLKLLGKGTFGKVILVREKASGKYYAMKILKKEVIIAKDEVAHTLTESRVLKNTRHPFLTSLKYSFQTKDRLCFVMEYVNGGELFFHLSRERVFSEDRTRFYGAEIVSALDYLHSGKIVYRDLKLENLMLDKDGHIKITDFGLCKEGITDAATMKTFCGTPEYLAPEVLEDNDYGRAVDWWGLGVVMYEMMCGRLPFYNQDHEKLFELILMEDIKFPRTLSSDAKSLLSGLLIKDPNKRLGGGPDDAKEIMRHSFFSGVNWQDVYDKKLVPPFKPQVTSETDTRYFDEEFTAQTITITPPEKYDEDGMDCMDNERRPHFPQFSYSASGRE

[24] = molecular target: Mitogen-activated protein kinase kinase kinase 13 (Homo sapiens) (UniProt O43283); conditions: Compound concentration 1000.0 nM
[25] = molecular target: High affinity nerve growth factor receptor (Homo sapiens) (UniProt P04629); conditions: Compound concentration 1000.0 nM
[26] = molecular target: Mitogen-activated protein kinase 15 (Homo sapiens) (UniProt Q8TD08); conditions: Compound concentration 1000.0 nM
[27] = molecular target: Rhodopsin kinase GRK1 (Homo sapiens) (UniProt Q15835); conditions: Compound concentration 1000.0 nM
[28] = molecular target: Cyclin-dependent kinase 19 (Homo sapiens) (UniProt Q9BWU1); conditions: Compound concentration 1000.0 nM
[29] = molecular target: Tyrosine-protein kinase receptor Tie-1 (Homo sapiens) (UniProt P35590); conditions: Compound concentration 1000.0 nM
Sequence of Tyrosine-protein kinase receptor Tie-1 (Homo sapiens) (P35590 whole entry): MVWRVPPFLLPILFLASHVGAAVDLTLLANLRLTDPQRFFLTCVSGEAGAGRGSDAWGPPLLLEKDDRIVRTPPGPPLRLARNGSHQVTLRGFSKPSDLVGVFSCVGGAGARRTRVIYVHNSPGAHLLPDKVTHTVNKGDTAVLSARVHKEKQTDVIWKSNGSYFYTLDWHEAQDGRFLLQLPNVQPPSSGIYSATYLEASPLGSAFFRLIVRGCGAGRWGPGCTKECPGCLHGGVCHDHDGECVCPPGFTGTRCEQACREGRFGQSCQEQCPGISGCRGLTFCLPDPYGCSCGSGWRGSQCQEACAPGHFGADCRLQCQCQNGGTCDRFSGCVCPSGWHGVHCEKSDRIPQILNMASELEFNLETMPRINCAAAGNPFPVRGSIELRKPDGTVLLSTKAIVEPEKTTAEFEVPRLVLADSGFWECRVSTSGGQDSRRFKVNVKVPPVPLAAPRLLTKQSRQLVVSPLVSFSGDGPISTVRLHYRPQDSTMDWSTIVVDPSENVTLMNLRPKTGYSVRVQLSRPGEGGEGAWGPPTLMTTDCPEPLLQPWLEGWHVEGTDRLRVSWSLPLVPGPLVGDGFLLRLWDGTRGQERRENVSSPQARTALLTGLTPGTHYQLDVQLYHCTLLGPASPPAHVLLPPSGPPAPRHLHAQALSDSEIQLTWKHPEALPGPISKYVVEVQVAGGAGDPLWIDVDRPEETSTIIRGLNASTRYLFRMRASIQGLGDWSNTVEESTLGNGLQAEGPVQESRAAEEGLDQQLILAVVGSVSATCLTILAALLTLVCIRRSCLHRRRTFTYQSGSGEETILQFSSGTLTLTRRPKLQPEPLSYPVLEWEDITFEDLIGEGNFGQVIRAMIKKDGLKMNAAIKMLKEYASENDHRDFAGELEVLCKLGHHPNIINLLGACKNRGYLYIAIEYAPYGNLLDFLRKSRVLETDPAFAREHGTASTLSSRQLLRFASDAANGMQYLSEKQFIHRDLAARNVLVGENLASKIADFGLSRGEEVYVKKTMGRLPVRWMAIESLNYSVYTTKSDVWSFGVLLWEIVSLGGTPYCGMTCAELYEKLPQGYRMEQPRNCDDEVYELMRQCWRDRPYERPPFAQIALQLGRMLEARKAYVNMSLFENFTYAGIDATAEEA

[30] = molecular target: Serine/threonine-protein kinase MAK (Homo sapiens) (UniProt P20794); conditions: Compound concentration 1000.0 nM
[31] = molecular target: Serine/threonine-protein kinase PAK 1 (Homo sapiens) (UniProt Q13153); conditions: Compound concentration 1000.0 nM
[32] = molecular target: Serine/threonine-protein kinase 38 (Homo sapiens) (UniProt Q15208); conditions: Compound concentration 1000.0 nM
[33] = molecular target: Receptor tyrosine-protein kinase erbB-4 (Homo sapiens) (UniProt Q15303); conditions: Compound concentration 1000.0 nM
[34] = molecular target: Mitogen-activated protein kinase 3 (Homo sapiens) (UniProt P27361); conditions: Compound concentration 1000.0 nM
[35] = molecular target: ALK tyrosine kinase receptor (Homo sapiens) (UniProt Q9UM73); conditions: Compound concentration 1000.0 nM
Sequence of ALK tyrosine kinase receptor (Homo sapiens) (Q9UM73 19-1620 limits assumed): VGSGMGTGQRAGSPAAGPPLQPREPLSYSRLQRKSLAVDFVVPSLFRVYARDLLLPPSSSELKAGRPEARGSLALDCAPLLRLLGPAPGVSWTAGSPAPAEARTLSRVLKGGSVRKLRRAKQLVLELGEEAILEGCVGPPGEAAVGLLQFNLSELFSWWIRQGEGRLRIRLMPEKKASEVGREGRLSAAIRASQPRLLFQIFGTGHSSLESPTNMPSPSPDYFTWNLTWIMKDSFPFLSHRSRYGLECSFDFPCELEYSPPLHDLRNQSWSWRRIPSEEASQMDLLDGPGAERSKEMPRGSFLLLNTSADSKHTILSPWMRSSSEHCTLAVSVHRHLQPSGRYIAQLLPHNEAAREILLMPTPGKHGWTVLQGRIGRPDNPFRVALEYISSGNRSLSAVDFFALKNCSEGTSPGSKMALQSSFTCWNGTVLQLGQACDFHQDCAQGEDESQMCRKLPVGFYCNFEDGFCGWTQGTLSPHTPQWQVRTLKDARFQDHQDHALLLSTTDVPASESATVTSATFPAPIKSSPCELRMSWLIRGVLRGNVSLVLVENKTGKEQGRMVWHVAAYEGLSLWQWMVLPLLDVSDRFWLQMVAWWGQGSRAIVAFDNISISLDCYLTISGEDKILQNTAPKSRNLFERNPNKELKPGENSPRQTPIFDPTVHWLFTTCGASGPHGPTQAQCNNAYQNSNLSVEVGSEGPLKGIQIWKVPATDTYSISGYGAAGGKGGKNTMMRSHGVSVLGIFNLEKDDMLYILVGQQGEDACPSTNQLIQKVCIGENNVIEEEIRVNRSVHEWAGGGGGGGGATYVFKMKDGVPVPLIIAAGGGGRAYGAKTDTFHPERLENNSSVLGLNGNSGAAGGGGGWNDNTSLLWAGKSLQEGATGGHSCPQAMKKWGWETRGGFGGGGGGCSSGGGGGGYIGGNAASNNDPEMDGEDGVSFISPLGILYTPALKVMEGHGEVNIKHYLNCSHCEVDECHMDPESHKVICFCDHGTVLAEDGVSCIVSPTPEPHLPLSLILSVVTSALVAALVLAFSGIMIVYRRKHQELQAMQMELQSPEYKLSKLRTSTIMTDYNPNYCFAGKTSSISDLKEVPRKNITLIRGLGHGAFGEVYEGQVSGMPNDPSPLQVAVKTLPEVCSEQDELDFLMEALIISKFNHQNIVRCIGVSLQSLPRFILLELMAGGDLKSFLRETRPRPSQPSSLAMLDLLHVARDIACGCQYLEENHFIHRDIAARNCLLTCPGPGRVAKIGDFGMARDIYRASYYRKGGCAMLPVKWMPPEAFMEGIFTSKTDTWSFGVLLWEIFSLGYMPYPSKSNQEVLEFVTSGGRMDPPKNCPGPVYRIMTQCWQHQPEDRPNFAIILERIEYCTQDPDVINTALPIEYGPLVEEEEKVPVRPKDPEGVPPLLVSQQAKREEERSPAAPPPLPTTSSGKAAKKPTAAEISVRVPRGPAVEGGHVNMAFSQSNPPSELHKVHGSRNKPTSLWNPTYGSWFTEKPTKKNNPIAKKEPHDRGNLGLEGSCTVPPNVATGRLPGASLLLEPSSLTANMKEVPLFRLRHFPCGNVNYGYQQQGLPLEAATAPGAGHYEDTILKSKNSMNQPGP

[36] = molecular target: Peripheral plasma membrane protein CASK (Homo sapiens) (UniProt O14936); conditions: Compound concentration 1000.0 nM
[37] = system: Tyrosine-protein kinase ABL1 (Homo sapiens), P00519 [F317I]; conditions: Compound concentration 1000.0 nM
[38] = molecular target: Mitogen-activated protein kinase kinase kinase 2 (Homo sapiens) (UniProt Q9Y2U5); conditions: Compound concentration 1000.0 nM
[39] = system: Phosphatidylinositol 4,5-bisphosphate 3-kinase catalytic subunit alpha isoform (Homo sapiens), P42336 [I800L]; conditions: Compound concentration 1000.0 nM
Sequence of Phosphatidylinositol 4,5-bisphosphate 3-kinase catalytic subunit alpha isoform (Homo sapiens), P42336 [I800L] (P42336 whole entry I800L, canonical isoform): as the sequence (P42336 whole entry H1047L, canonical isoform) above, with I800L, L1047H counted along it

[40] = molecular target: Cyclin-dependent kinase-like 1 (Homo sapiens) (UniProt Q00532); conditions: Compound concentration 1000.0 nM
[41] = molecular target: Cyclin-dependent kinase-like 2 (Homo sapiens) (UniProt Q92772); conditions: Compound concentration 1000.0 nM
[42] = molecular target: Dual serine/threonine and tyrosine protein kinase (Homo sapiens) (UniProt Q6XUX3); conditions: Compound concentration 1000.0 nM
[43] = molecular target: Tyrosine-protein kinase Lyn (Homo sapiens) (UniProt P07948); conditions: Compound concentration 1000.0 nM
[44] = molecular target: Bone morphogenetic protein receptor type-1B (Homo sapiens) (UniProt O00238); conditions: Compound concentration 1000.0 nM
[45] = molecular target: Inhibitor of nuclear factor kappa-B kinase subunit beta (Homo sapiens) (UniProt O14920); conditions: Compound concentration 1000.0 nM

## CC(=O)N1CCC(c2ccc(C(=O)NC3=NCCN3)cc2C(F)(F)F)CC1 [BI 0054]
[1]
  residual activity: 100%
[2]
  residual activity: 100%
[3]
  residual activity: 70%
[4]
  residual activity: 86%
[5]
  residual activity: 100%
[6]
  residual activity: 100%
[7]
  residual activity: 100%
[8]
  residual activity: 100%
[9]
  inhibition: 11.8%
[10]
  residual activity: 100%
[11]
  residual activity: 100%
[12]
  residual activity: 93%
[13]
  residual activity: 100%
[14]
  residual activity: 98%
[15]
  residual activity: 100%
[16]
  residual activity: 89%
[17]
  residual activity: 100%
[18]
  residual activity: 93%
[19]
  residual activity: 87%
[20]
  residual activity: 100%
[21]
  residual activity: 100%
[22]
  residual activity: 84%
[23]
  residual activity: 100%
[24]
  residual activity: 100%
[25]
  residual activity: 100%
[26]
  residual activity: 100%
[27]
  residual activity: 95%
[28]
  residual activity: 100%
[29]
  residual activity: 82%
[30]
  residual activity: 61%
[31]
  residual activity: 98%
[32]
  residual activity: 85%
[33]
  residual activity: 100%
[34]
  residual activity: 100%
[35]
  residual activity: 89%
[36]
  residual activity: 85%
[37]
  residual activity: 94%
[38]
  residual activity: 100%
[39]
  residual activity: 94%
[40]
  residual activity: 100%
[41]
  residual activity: 100%
[42]
  residual activity: 74%
[43]
  residual activity: 94%
[44]
  residual activity: 89%
[45]
  residual activity: 85%

## CC(=O)N1CCC(c2ccc(C(=O)NC(=N)N)cc2C(F)(F)F)CC1 [BI 9627]
[1]
  residual activity: 0%
[2]
  residual activity: 100%
[3]
  residual activity: 96%
[4]
  residual activity: 84%
[5]
  residual activity: 100%
[6]
  residual activity: 100%
[7]
  residual activity: 100%
[8]
  residual activity: 100%
[9]
  inhibition: 21.4%
[10]
  residual activity: 100%
[11]
  residual activity: 100%
[12]
  residual activity: 100%
[13]
  residual activity: 100%
[14]
  residual activity: 96%
[15]
  residual activity: 99%
[16]
  residual activity: 100%
[17]
  residual activity: 81%
[18]
  residual activity: 100%
[19]
  residual activity: 95%
[20]
  residual activity: 100%
[21]
  residual activity: 100%
[22]
  residual activity: 100%
[23]
  residual activity: 100%
[24]
  residual activity: 100%
[25]
  residual activity: 100%
[26]
  residual activity: 100%
[27]
  residual activity: 98%
[28]
  residual activity: 100%
[29]
  residual activity: 100%
[30]
  residual activity: 79%
[31]
  residual activity: 100%
[32]
  residual activity: 96%
[33]
  residual activity: 100%
[34]
  residual activity: 100%
[35]
  residual activity: 93%
[36]
  residual activity: 100%
[37]
  residual activity: 96%
[38]
  residual activity: 100%
[39]
  residual activity: 90%
[40]
  residual activity: 100%
[41]
  residual activity: 100%
[42]
  residual activity: 94%
[43]
  residual activity: 100%
[44]
  residual activity: 100%
[45]
  residual activity: 100%
